From patent US20030004172A1, “Fused pyrimidinone matrix metalloproteinase inhibitors” (priority 2001, published 2003)

molecular target: MMP-13CD (catalytic domain of collagenase-3) (Homo sapiens, UniProt P45452); assay: Thiopeptolide substrate hydrolysis inhibition assay, MMP-13CD; assay type: biochemical; details: Table I; thiopeptolide substrate, HEPES pH 7.0, 22° C.; read-out: MMP-13CD IC50
Source text: Thiopeptolide substrates show virtually no decomposition or hydrolysis at or below neutral pH in the absence of a matrix metalloproteinase enzyme.

Going from `Cn1c(=O)n(Cc2ccccc2)c(=O)c2cc(C(=O)OCC3CCC3)sc21` [Example 157, 3-Benzyl-1-methyl-2,4-dioxo-1,2,3,4-tetrahydro-thieno[2,3-d]pyrimidine-6-carboxylic acid cyclobutylmethyl ester] to `CCCCOC(=O)c1cc2c(=O)n(Cc3ccccc3)c(=O)n(C)c2s1` [Example 150, 3-Benzyl-1-methyl-2,4-dioxo-1,2,3,4-tetrahydro-thieno[2,3-d]pyrimidine-6-carboxylic acid butyl ester], the IC50 falls from over 100000 nM to 13000 nM.

`Cn1c(=O)n(Cc2ccccc2)c(=O)c2cc(C(=O)NCc3ccc(C(F)(F)F)cc3)sc21` [Example 212, 3-Benzyl-1-methyl-2,4-dioxo-1,2,3,4-tetrahydro-thieno[2,3-d]pyrimidine-6-carboxylic acid 4-trifluoromethyl-benzylamide] and `Cn1c(=O)n(Cc2ccccc2)c(=O)c2cc(C(=O)NCc3ccc(Cl)c(Cl)c3)sc21` [Example 359, 3-Benzyl-1-methyl-2,4-dioxo-1,2,3,4-tetrahydro-thieno[2,3-d]pyrimidine-6-carboxylic acid 3,4-dichloro-benzylamide] are within 1.5-fold of each other in IC50: 670 nM for the first, 1000 nM for the second.

Compared with `Cn1c(=O)n(CCCN)c(=O)c2cc(C(=O)OCc3ccccc3)sc21` [Example 116, 3-(3-Amino-propyl)-1-methyl-2,4-dioxo-1,2,3,4-tetrahydro-thieno[2,3-d]pyrimidine-6-carboxylic acid benzyl ester], `Cn1c(=O)n(CCCOc2ccccc2)c(=O)c2cc(C(=O)OCc3ccccc3)sc21` [Example 123, 1-Methyl-2,4-dioxo-3-(3-phenoxy-propyl)-1,2,3,4-tetrahydro-thieno[2,3-d]pyrimidine-6-carboxylic acid benzyl ester] is 1.7-fold lower in IC50: 13000 nM for the first, 7800 nM for the second. The second is the more potent here.

Going from `COc1ccc(CCNC(=O)c2cc3c(=O)n(Cc4ccccc4)c(=O)n(C)c3s2)cc1OC` [Example 320, 3-Benzyl-1-methyl-2,4-dioxo-1,2,3,4-tetrahydro-thieno[2,3-d]pyrimidine-6-carboxylic acid[2-(3,4-dimethoxy-phenyl)-ethyl]-amide] to `CCOc1cccc(CCNC(=O)c2cc3c(=O)n(Cc4ccccc4)c(=O)n(C)c3s2)c1` [Example 327, 3-Benzyl-1-methyl-2,4-dioxo-1,2,3,4-tetrahydro-thieno[2,3-d]pyrimidine-6-carboxylic acid[2-(3-ethoxy-phenyl)-ethyl]-amide], the IC50 falls from over 100000 nM to 2800 nM.

Going from `Cn1c(=O)n(Cc2cccc(Cl)c2)c(=O)c2cc(C(=O)OCc3ccccc3)sc21` [Example 140] to `Cn1c(=O)n(Cc2ccccc2)c(=O)c2cc(C(=O)OCc3cccc(Cl)c3)sc21` [Example 200, 3-Benzyl-1-methyl-2,4-dioxo-1,2,3,4-tetrahydro-thieno[2,3-d]pyrimidine-6-carboxylic acid 3-chloro-benzyl ester], the IC50 rises from 17 nM to 67 nM (3.9-fold). The first is the more potent here.

Going from `Cn1c(=O)n(Cc2ccc(C(=O)OC(C)(C)C)cc2)c(=O)c2cc(C(=O)NCc3cccc(OC(F)F)c3)sc21` [Example 78, 4-[6-(3-Difluoromethoxy-benzylcarbamoyl)-1-methyl-2,4-dioxo-1,4-dihydro-2H-thieno[2,3-d]pyrimidin-3-ylmethyl]-benzoic acid tert-butyl ester] to `COc1cccc(CNC(=O)c2cc3c(=O)n(Cc4ccc(C(=O)O)cc4)c(=O)n(C)c3s2)c1` [Example 79, 4-[6-(3-Methoxy-benzylcarbamoyl)-1-methyl-2,4-dioxo-1,4-dihydro-2H-thieno[2,3-d]pyrimidin-3-ylmethyl]-benzoic acid], the IC50 falls from 900 nM to 2.05 nM (440-fold).

`Cn1c(=O)n(Cc2ccccc2)c(=O)c2cc(C(=O)OCCc3ccccc3O)sc21` [Example 159, 3-Benzyl-1-methyl-2,4-dioxo-1,2,3,4-tetrahydro-thieno[2,3-d]pyrimidine-6-carboxylic acid 2-(2-hydroxy-phenyl)-ethyl ester] and `Cn1c(=O)n(Cc2ccccc2)c(=O)c2cc(C(=O)NCc3ccccc3Cl)sc21` [Example 345, 3-Benzyl-1-1-methyl-2,4-dioxo-1,2,3,4-tetrahydro-thieno[2,3-d]pyrimidine-6-carboxylic acid 2-chloro-benzylamide] are the same in IC50: 30000 nM for the first, 30000 nM for the second.

Going from `Cn1c(=O)n(Cc2ccccc2)c(=O)c2cc(C(=O)NCc3ccccc3-c3ccccc3)sc21` [Example 323, 3-Benzyl-1-methyl-2,4-dioxo-1,2,3,4-tetrahydro-thieno[2,3-d]pyrimidine-6-carboxylic acid (biphenyl-2-ylmethyl)-amide] to `CSc1ccc(COC(=O)c2cc3c(=O)n(Cc4ccccc4)c(=O)n(C)c3s2)cc1` [Example 202, 3-Benzyl-1-methyl-2,4-dioxo-1,2,3,4-tetrahydro-thieno[2,3-d]pyrimidine-6-carboxylic acid 4-methylsulfanyl-benzyl ester], the IC50 falls from over 100000 nM to 360 nM.

Compared with `CC(=O)c1ccc(-n2c(=O)[nH]c3sc(C(=O)OCc4ccccc4)c(C)c3c2=O)cc1` [Example 6, 3-(4-Acetyl-phenyl)-5-methyl-2,4 dioxo-1,2,3,4-tetrahydro-thieno[2,3-d]-pyrimidine-6-carboxylic acid benzyl ester], `Cn1c(=O)n(Cc2ccc(C(=O)O)cc2)c(=O)c2cc(C(=O)NCc3ccc(Br)cc3)sc21` [Example 55, 4-[6-(4-Bromo-benzylcarbamoyl)-1-methyl-2,4-dioxo-1,4-dihydro-2H-thieno[2,3-d]pyrimidin-3-ylmethyl]-benzoic acid] is lower in IC50: over 100000 nM for the first, 11 nM for the second. The second is the more potent here.

First: COc1cccc(CNC(=O)c2cc3c(=O)n(CCOc4ccc(Br)cc4)c(=O)n(C)c3s2)c1 [Example 233, 3-[2-(4-Bromo-phenoxy)-ethyl]-1-methyl-2,4-dioxo-1,2,3,4-tetrahydro-thieno[2,3-d]pyrimidine-6-carboxylic acid 3-methoxy-benzylamide]
Second: COc1cccc(CNC(=O)c2cc3c(=O)n(CC[C@@H](C)CCC=C(C)C)c(=O)n(C)c3s2)c1 [Example 280]
The IC50 of the first is 250-fold lower: 69 nM for the first, 17000 nM for the second.

Going from `CCC(CC)n1c(=O)c2cc(C(=O)NCc3ccc(OC)cc3)sc2n(C)c1=O` [Example 264] to `CCC#CCn1c(=O)c2cc(C(=O)NCc3ccc(OC)cc3)sc2n(C)c1=O` [Example 265], the IC50 falls from 7400 nM to 38 nM (190-fold). The second is the more potent here.

Going from `COc1cc(CNC(=O)c2cc3c(=O)n(Cc4ccc([N+](=O)[O-])nc4)c(=O)n(C)c3s2)ccn1` [Example 370, 1-Methyl-3-(6-nitro-pyridin-3-ylmethyl)-2,4-dioxo-1,2,3,4-tetrahydro-thieno[2,3-d]pyrimidine-6-carboxylic acid (2-methoxy-pyridin-4-ylmethyl)-amide] to `COc1ccc(CNC(=O)c2cc3c(=O)n(Cc4ccc(C(=O)O)cc4)c(=O)n(C)c3s2)cc1OC` [Example 54, 4-[6-(3,4-Dimethoxy-benzylcarbamoyl)-1-methyl-2,4-dioxo-1,4-dihydro-2H-thieno[2,3-d]pyrimidin-3-ylmethyl]-benzoic acid], the IC50 rises from 1170 nM to 4500 nM (3.8-fold). The first is the more potent here.

First: COc1ccc(CNC(=O)c2cc3c(=O)n(CC=C(C)C)c(=O)n(C)c3s2)cc1 [Example 267]
Second: COc1ccc(CNC(=O)c2cc3c(=O)n(Cc4ccc(-c5noc(=O)[nH]5)cc4)c(=O)n(C)c3s2)cc1 [Example 221, 1-Methyl-2,4-dioxo-3-[4-(5-oxo-4,5-dihydro-1,2,4-oxadiazol-3-yl)-benzyl]-1,2,3,4-tetrahydro-thieno[2,3-d]pyrimidine-6-carboxylic acid 4-methoxy-benzylamide]
The IC50 of the first is 240-fold higher: 1100 nM for the first, 4.6 nM for the second. The second is the more potent here.
